Columns and labels:
[1] = Particle size distribution (PSD) by LALLS; assay type: physicochemical; details: for Dx (10)/μm: 10th percentile of particle size, paraffin oil dispersion; for Dx (50)/μm: 50th percentile of particle size; for Dx (90)/μm: 90th percentile of particle size; for >100 μm (%): percentage of particles greater than 100 μm; for <2 μm (%): percentage of particles less than 2 μm
Text: As used herein, the term “Dx(10)/μm” refers to the 10th percentile of particle size (D10) measured in micrometers (μm). As used herein, the terms “Dx(50)/μm” or “median particle size” refer to the 50th percentile particle size (D50). As used herein, the term “Dx(90)/μm” refers to the 90th percentile of particle size (D90).
As used herein, the term “<2 μm (%)” refers to the percentage (%) of particles that are less than 2 μm. As used herein, the term “>100 μm (%)” refers to the percentage (%) of particles that are greater than 100 μm. As used herein, the percentage of particles refers to the percentage based on the population, or number, of particles.
The sample dispersion medium was paraffin oil. […] This was repeated until a stable reading was obtained.
The PSD measurements were done using the following settings: background measurement time, 20 seconds(s); sample measurement time, 20 s; dispersant refractive index, 1.45; particle refractive index, N/A (Fraunhofer), absorption, N/A (Fraunhofer); stirrer speed, 2500 rpm; analysis model: general purpose.

[2] = Specific surface area (SSA) by BET; assay type: physicochemical; details: N2 adsorption
Procedure: As used herein, the ten “SSA (m^2/g)” refers to specific surface area (SSA) measured in square meters (m^2) per gram (g). SSA was measured by BET according to the method described in Example 4.
Specific Surface Area (SSA) was analyzed by BET on a surface area analyzer (Gemini 2375™ from Micromeritics Instrument Corp.). […] Each sample was filled into a glass tube and “degassed” at 30° C. for 1 h under continuous N2 (g) flow in order to remove all loosely bound molecules on the external surface and from potential channels in the material. Simultaneously, the saturation pressure for the liquid nitrogen used was determined. After weighing the degassed samples, the degassed samples were inserted into the measuring position at −196° C. (boiling point for liquid nitrogen), evacuated and then exposed to a range of partial pressures basically covering the whole range from almost zero to close to 1 under adsorption mode. The lower pressures were used for SSA determination. Higher pressures were used for potential micro pore determination. In order to ascribe the right amount of nitrogen to the substances, the free volume in the tubes was measured with helium gas prior to nitrogen adsorption. The appropriate thickness values for the adsorbed layer (above the point where no absorption took place in micro pores anymore) was determined from a t-plot and subsequently used to correct the calculation by separating the adsorbed nitrogen molecules into either absorbed into potential pore like structures (the “micro pore volume”) or adsorbed onto actual external surface.

[3] = Crystallinity by X-ray powder diffraction (XRPD); assay type: physicochemical; details: AREAcryst/AREAtotal*100, listed as A-2
Procedure: Crystallinity was analyzed by X-ray powder diffraction (XRPD) using a Cu-anode (45 kV/40 mA), a Kα-1 monochromator and silicon-based position-sensitive 1D detector (Malvern Panalytical, X'Celerator™). The 2-theta range was 2-35° using a scan speed of 0.02°/s and a step size of 0.017°. Slow spinning sample holders were used. […] Each sample was smeared out using a Teflon bar, producing a flat powdered surface on zero background wafers of silicon (Si). The measurements were performed using a programmable incident divergence slit.
The crystallinity was evaluated using Panalytical HighScore Plus™ software (The HighScore suite; T. Degen, M. Sadki, E. Bron, U. König, G. Nénert; Powder Diffraction, Volume 29, Supplement S2, December 2014, pp S13-S18). This method is based on the following steps: 1) Calculation of the net area of the signals from the crystalline part of the sample. This area is defined as “AREAcryst.” 2) Calculation of the net total area, that is, area from the amorphous “humps” plus the net peak area from step 1. This area is defined as “AREAtotal.” In the calculation of above areas, an automatic correction of the background is made by using data collected for an empty sample holder. 3) The percent crystallinity of the sample is calculated as: (AREAcryst/AREAtotal)*100.
XRPD crystallinity results for each batch are reported Table 1.

[4] = Stability of crystalline particles after forced degradation at 40° C. and 75% relative humidity (HPLC impurities); assay type: physicochemical; details: listed as A-2
Procedure: Stability analysis was performed on crystalline particles after forced degradation at 40° C. and 75% relative humidity over 3 days.

[5] = 5 g lab-scale Process C crystallization; for D10 (μm) / D50 (μm) / D90 (μm): ethanol charge time and temperature vary per example; for >100 (%): particles greater than 100 μm; for <2 (%): particles less than 2 μm; for D90/D50: ratio of D90 to D50
Procedure: Particle size distribution (PSD) was analyzed by LALLS on a commercial laser particle size analyzer (Malvern Instruments Ltd. Mastersizer 3000™) instrument, equipped with a 300 mm reverse Fourier lens with a small volume automated liquid sample dispersion unit (Malvern, Hydro MV™). The sample dispersion medium was paraffin oil. Samples taken from each of the batches were analyzed sequentially. Each sample was introduced directly into the small volume sample dispersion unit to study the disaggregation under influence of stirring only. Thereafter sonication was applied at low power (20%) in 60 seconds. This was repeated until a stable reading was obtained.
(§1) Each mixture was then transferred to a 250 mL lab reactor via a series of 0.45 and 0.22 μm HPLC filters for polish filtration, and 2×1 mL water was used for rinsing (total amount water added: 19 mL, which gives an ethanol amount of 76 mL for an ethanol/water end-ratio of 80/20). After heating of the mixture to correct jacket temperature (35° C., 45° C., 50° C. or 55° C.), ethanol (76 mL) was charged for 1, 2.5 or 4 hours. A syringe pump connected to a 50-mL plastic syringe was used for the charging. Linear cooling profiles were then applied and all examples were cooled at a rate of 0.333° C./min down to 15° C. All mixtures were stirred for an additional 10 minutes at 15° C. before isolation of the solid on a P3 glass filter funnel. In example 8, the same conditions as described above were used, but the speed of the stirrer of the lab reactor was doubled. In example 10, the same conditions as described above were used, but a type different stirrer was used that increased the mass transfer in the lab reactor.

[6] = isolated solid after 5 g lab-scale Process C crystallization
Procedure: Purity was analyzed by reverse-phase high-performance liquid chromatography (HLPC) using Agilent® 1100 series HPLC system and a reversed-phase column (Aquasil C18, 4.6×250 mm, 5 μm) at 25°, with the absorbance detector set to 242 or 301 nm. […] The amount of BC-TTM and impurities in the sample solution was determined by the regression line and the area of the standard peaks in the sample chromatogram.
as §1

| Substance | D10 (μm) [5] [μm] | D50 (μm) [5] [μm] | D90 (μm) [5] [μm] | >100 (%) [5] [%] | <2 (%) [5] [%] | D90/D50 [5] | TM2 (% w/w) [6] [% w/w] | TM3 (% w/w) [6] [% w/w] | Total impurities (% w/w) [6] [% w/w] | also measured |
| --- | --- | --- | --- | --- | --- | --- | --- | --- | --- | --- |
| bis-choline tetrathiomolybdate [Batch A-1] | – | – | – | – | – | – | – | – | – | Dx (10)/μm ([1]; listed as A-1): 10.3 μm; Dx (50)/μm ([1]; listed as A-1): 59.4 μm; Dx (90)/μm ([1]; listed as A-1): 503 μm; >100 μm (%) ([1]; listed as A-1): 42.1%; <2 μm (%) ([1]; listed as A-1): 2%; SSA (m^2/g) ([2]; listed as A-1): 0.52 m^2/g |
| bis-choline tetrathiomolybdate [Batch A-2] | – | – | – | – | – | – | – | – | – | Estimated Crystallinity (%) [3]: 86%; Dx (10)/μm ([1]; listed as A-2): 25.5 μm; Dx (50)/μm ([1]; listed as A-2): 86.6 μm; Dx (90)/μm ([1]; listed as A-2): 442.0 μm; >100 μm (%) ([1]; listed as A-2): 46.8%; <2 μm (%) ([1]; listed as A-2): 0.0%; SSA (m^2/g) ([2]; listed as A-2): 0.26 m^2/g; Mo2S6O2 dimer (area %) ([4]; Day 3, 40° C. / 75% RH): 0.09 area %; TM2 (area %) ([4]; Day 3, 40° C. / 75% RH): 2.38 area %; TM3 (area %) ([4]; Day 3, 40° C. / 75% RH): 2.78 area %; Total impurities (area %) ([4]; Day 3, 40° C. / 75% RH): 5.54 area %; TM2 (area %) ([4]; Initial): 0.29 area %; TM3 (area %) ([4]; Initial): 2.04 area %; Total impurities (area %) ([4]; Initial): 2.34 area % |
| bis-choline tetrathiomolybdate [Batch C-3] | – | – | – | – | – | – | – | – | – | Dx (10)/μm ([1]; listed as C-3): 25.7 μm; Dx (50)/μm ([1]; listed as C-3): 52.9 μm; Dx (90)/μm ([1]; listed as C-3): 97.7 μm; >100 μm (%) ([1]; listed as C-3): 9.2%; <2 μm (%) ([1]; listed as C-3): 1.0%; SSA (m^2/g) ([2]; listed as C-3): 0.12 m^2/g |
| bis-choline tetrathiomolybdate [compound 1] | 21 | 45 | 77 | 1.4 | 1.3 | 1.7 | <0.05 | 0.18 | 0.18 | – |
| bis-choline tetrathiomolybdate [compound 2] | 25 | 46 | 79 | 1.9 | 1.4 | 1.7 | 0.13 | 0.45 | 0.57 | – |
| bis-choline tetrathiomolybdate [compound 3] | 37 | 79 | 135 | 30 | 0.4 | 1.7 | <0.05 | 0.14 | 0.14 | – |
| bis-choline tetrathiomolybdate [compound 4] | 33 | 56 | 92 | 5.8 | 0.8 | 1.6 | 0.19 | 0.46 | 0.70 | – |
| bis-choline tetrathiomolybdate [compound 5] | 38 | 80 | 136 | 31 | 0.0 | 1.7 | <0.05 | 0.18 | 0.18 | – |
| bis-choline tetrathiomolybdate [compound 6] | 42 | 87 | 148 | 38 | 0.0 | 1.7 | <0.05 | 0.19 | 0.19 | – |
| bis-choline tetrathiomolybdate [compound 7] | 41 | 85 | 143 | 36 | 0.0 | 1.7 | <0.05 | 0.18 | 0.18 | – |
| bis-choline tetrathiomolybdate [compound 8] | 57 | 102 | 164 | 52 | 0.0 | 1.6 | <0.05 | 0.18 | 0.18 | – |
| bis-choline tetrathiomolybdate [compound 9] | 33 | 61 | 101 | 11 | 1.0 | 1.7 | 0.12 | 0.25 | 0.37 | – |
| bis-choline tetrathiomolybdate [compound 10] | 50 | 95 | 161 | 45 | 0.0 | 1.7 | <0.05 | 0.16 | 0.16 | – |

Source: patent US11739051B2 (ALEXION PHARMA INTERNATIONAL OPERATIONS UNLIMITED COMPANY, priority 2018, dated 2023)
